Where a SMILES comes first, the peptide text is derived from it. The star is where a group is joined. Palmitoyl = CCCCCCCCCCCCCCCC(=O)*
Experiments:
[1] = Fluorescence polarization of PA nanostructures; format: physicochemical; conditions: 10 mol% ICG conjugated PA (20 µM) with unconjugated PA, 200 µM total, PBS; mean ± SEM, 3 wells
Procedure: ICG (10 mol%) containing PA micelles were prepared by mixing ICG‐conjugated PAs with unconjugated or MMAE‐conjugated PAs to achieve a final concentration of 20 µM ICG‐conjugated PAs and 200 µM of total PAs. Aliquots of 100 µL were added to a 96‐well plate (3 wells for each PA). Fluorescence polarization measurements were performed using a microplate reader (TECAN Spark 20 M). The corrected parallel intensity (I par) and perpendicular intensity (Iper) were used to calculate the fluorescence anisotropy (r) using the following equation: r = […].

[2] = PA fluorescence in liver homogenates; format: in vitro ADME; conditions: ICG conjugated, 0.1 to 10 µM spiked into mouse liver homogenate, IVIS
Procedure: Liver samples (6.2 g total weight) collected from healthy BALB/cJ mice were placed in a gentleMACS M Tube containing 2 mL of PBS. The M Tube was fitted with a 600 µm mesh strainer, and homogenization was performed using a gentleMACS Dissociator by running a one‐minute program at 1260 rotations per round (rpr) for five cycles. ICG conjugated SA‐E and SA‐K were then spiked into the liver homogenates in a 96‐well plate at final concentrations of 0, 0.1, 0.5, 2.0, 5.0, and 10 µM. Fluorescence signals from the homogenates were measured using an IVIS (PerkinElmer).

RG2 xenografts = assay: Flow cytometry of mCherry expressing RG2 xenografts; format: in vivo, mouse; conditions: Cy5 SA‐E 50 nmol IV
Procedure: RG2‐mCherry cells (100 µL sterile DMEM, 0.5 × 10^7 cells mL^−1) were implanted subcutaneously in nude mice and allowed to grow to 0.5–1 cm. Mice were then injected intravenously with the Cy5 labeled SA‐E (100 µL, 0.5 mM). 2 days later, tumors were extracted, minced, and dissociated using 1 mg mL^−1 solution collagenase/dispase (Roche, 10269638001 and 11097113001) for 45 min at 37 °C. The solution was broken down with pipetting and filtered through a 70 µm filter. The single‐cell solution was suspended in sterile PBS (10 mM, pH 7.4) and then incubated with 1:50 dilution of AlexaFluor 488 Rat Anti‐Mouse CD45 antibody (BD Pharminogen, 567377) for 45 min at room temperature. Finally, the cells were pelleted and, washed and incubated with 5 µM Calcein Blue, AM (Invitrogen, C1429) for 20 min. The cells were then analyzed in BD FACSymphony in the DAPI channel (355 nm laser, 450/50 filter), FITC channel (488 nm laser, 515/30 filter), Cy3 channel (561 nm laser, 586/15 filter), and Cy5 channel (628 nm laser, 670/30 filter). Cells in culture were used to establish size and mCherry intensity. […] Finally, three experimental mice were analyzed in all channels using the gating established from the controls. Gating was performed in FlowJo software.

human plasma proteins = molecular target: T1, human plasma proteins (Homo sapiens, UniProt P08519); assay: Mass spectrometry of proteins pulled down with biotinylated SA‐E (SA‐Eb) from human plasma; format: binding
T1 construct: incubated with 50% pooled human plasma at 37 °C for 2 h; from tissue; host or cells: pooled human plasma (50%)
Procedure: Samples were prepared for mass spectrometry analysis via a pull‐down of a biotinylated version of the SA‐E probe (SA‐Eb, 100 µM) incubated with 50% pooled human plasma at 37 °C for 2 h. Before incubation with the SA‐Eb‐plasma mixture, magnetic streptavidin‐coated beads (Dynabeads MyOne Streptavidin T1, Invitrogen, 65601) were washed with PBS (10 mM, pH 7.4) then blocked with 1% casein equal to the total initial volume of beads for 15 min at room temperature. After blocking, beads were washed again with PBS. Beads were then combined with SA‐Eb‐plasma solution, 25 µL beads to 200 µL mixture. This mixture was then incubated at room temperature for 30 min. After incubation, the remaining solution was removed, and the beads were washed five times with PBS. Bound SA‐Eb was eluted from beads in 30 µL 0.5% Triton X‐100 solution. Magnetic beads were then removed, and the elution was collected for analysis. For plasma control, the incubation with SA‐Eb step was skipped, and 50% plasma in PBS was incubated with beads and washed and eluted using the same method as the SA‐Eb‐plasma solution. The elution solutions were then analyzed by the Proteomics Shared Resource facility at Oregon Health & Science University (See Supporting Information for details).
Sample Preparation. Eluted plasma samples were dried down and stored at -80°C. Samples were thawed at room temperature for 10 min, and 75 µL of SDS protein extraction buffer (5% SDS, 50 mM […]; TEAB) was added to each sample. Samples were shaken in a Thermo mixer for 10 minutes at room temperature and centrifuged at 10,000 g for 5 min. Each sample was transferred from a 0.5 mL tube to a 1.5 mL LoBind centrifuge tube. Samples were reduced by adding 3.4 µL of 0.5 M dithiothreitol and incubated at 95 °C for 10 min. Samples were alkylated by the addition of 6.8 µL of 0.5 M iodoacetamide and were incubated at room temperature for 30 min in the dark. Samples were then acidified by the addition of 8.52 µL of 12% phosphoric acid, and 562 µL of SDS protein binding buffer (90% methanol, 100 mM TEAB, pH 7.51). Samples were transferred 165 µL at a time to S-trap micro columns (Protifi, Farmingdale, NY) and inserted into 1.5 mL of polypropylene tubes. Samples were centrifuged at 4,000 g for 3 min between each addition of the sample. S-trap columns were washed 6 times using 150 µL of 90% methanol containing 100 mM of TEAB followed by centrifugation at 4,000g for 3 min between each wash step. S-trap columns containing the bound sample proteins were transferred to 1.5 mL LoBind centrifuge tubes and 40 µL of 80 ng/µL sequencing grade modified trypsin (Pierce TM Trypsin Protease MS-Grade, XG348166) in 50 mM TEAB was added. S-trap columns were loosely capped, and digestion was performed at 37°C overnight in a humidified chamber.
After completion of digestion, peptides were eluted by sequential addition of 40 µL of TEAB, 40 µL of 0.2% aqueous formic acid, and 40 µl of 50% acetonitrile, 0.2% formic acid, with centrifugation at 4,000 g for 4 min between each addition of elution buffer. The elution fractions were combined and then dried by vacuum centrifugation. Samples were reconstituted by adding 20 µL of 5% formic acid, shaking at 37 °C, and spinning at 15,000 g for 5 min. The supernatant of each sample was transferred to an auto-sample vial.
Data analysis. Mass spectrometry data from all samples were processed using COMET/PAWS against Uniprot_Human_database. Comet (v. 2016.01, rev. 3)^8 was used to search MS2 Spectra against a January 2023 version of canonical FASTA protein database containing human uniprot sequences, and concatenated sequence-reversed entries to estimate error thresholds and 179 common contaminant sequences and their reversed forms. The database processing was performed using python scripts available at https://github.com/pwilmart/fasta_utilities.git and Comet results were processed using the PAW pipeline2 from https://github.com/pwilmart/PAW_pipeline.git.

T1 sequence (P08519 20-2040): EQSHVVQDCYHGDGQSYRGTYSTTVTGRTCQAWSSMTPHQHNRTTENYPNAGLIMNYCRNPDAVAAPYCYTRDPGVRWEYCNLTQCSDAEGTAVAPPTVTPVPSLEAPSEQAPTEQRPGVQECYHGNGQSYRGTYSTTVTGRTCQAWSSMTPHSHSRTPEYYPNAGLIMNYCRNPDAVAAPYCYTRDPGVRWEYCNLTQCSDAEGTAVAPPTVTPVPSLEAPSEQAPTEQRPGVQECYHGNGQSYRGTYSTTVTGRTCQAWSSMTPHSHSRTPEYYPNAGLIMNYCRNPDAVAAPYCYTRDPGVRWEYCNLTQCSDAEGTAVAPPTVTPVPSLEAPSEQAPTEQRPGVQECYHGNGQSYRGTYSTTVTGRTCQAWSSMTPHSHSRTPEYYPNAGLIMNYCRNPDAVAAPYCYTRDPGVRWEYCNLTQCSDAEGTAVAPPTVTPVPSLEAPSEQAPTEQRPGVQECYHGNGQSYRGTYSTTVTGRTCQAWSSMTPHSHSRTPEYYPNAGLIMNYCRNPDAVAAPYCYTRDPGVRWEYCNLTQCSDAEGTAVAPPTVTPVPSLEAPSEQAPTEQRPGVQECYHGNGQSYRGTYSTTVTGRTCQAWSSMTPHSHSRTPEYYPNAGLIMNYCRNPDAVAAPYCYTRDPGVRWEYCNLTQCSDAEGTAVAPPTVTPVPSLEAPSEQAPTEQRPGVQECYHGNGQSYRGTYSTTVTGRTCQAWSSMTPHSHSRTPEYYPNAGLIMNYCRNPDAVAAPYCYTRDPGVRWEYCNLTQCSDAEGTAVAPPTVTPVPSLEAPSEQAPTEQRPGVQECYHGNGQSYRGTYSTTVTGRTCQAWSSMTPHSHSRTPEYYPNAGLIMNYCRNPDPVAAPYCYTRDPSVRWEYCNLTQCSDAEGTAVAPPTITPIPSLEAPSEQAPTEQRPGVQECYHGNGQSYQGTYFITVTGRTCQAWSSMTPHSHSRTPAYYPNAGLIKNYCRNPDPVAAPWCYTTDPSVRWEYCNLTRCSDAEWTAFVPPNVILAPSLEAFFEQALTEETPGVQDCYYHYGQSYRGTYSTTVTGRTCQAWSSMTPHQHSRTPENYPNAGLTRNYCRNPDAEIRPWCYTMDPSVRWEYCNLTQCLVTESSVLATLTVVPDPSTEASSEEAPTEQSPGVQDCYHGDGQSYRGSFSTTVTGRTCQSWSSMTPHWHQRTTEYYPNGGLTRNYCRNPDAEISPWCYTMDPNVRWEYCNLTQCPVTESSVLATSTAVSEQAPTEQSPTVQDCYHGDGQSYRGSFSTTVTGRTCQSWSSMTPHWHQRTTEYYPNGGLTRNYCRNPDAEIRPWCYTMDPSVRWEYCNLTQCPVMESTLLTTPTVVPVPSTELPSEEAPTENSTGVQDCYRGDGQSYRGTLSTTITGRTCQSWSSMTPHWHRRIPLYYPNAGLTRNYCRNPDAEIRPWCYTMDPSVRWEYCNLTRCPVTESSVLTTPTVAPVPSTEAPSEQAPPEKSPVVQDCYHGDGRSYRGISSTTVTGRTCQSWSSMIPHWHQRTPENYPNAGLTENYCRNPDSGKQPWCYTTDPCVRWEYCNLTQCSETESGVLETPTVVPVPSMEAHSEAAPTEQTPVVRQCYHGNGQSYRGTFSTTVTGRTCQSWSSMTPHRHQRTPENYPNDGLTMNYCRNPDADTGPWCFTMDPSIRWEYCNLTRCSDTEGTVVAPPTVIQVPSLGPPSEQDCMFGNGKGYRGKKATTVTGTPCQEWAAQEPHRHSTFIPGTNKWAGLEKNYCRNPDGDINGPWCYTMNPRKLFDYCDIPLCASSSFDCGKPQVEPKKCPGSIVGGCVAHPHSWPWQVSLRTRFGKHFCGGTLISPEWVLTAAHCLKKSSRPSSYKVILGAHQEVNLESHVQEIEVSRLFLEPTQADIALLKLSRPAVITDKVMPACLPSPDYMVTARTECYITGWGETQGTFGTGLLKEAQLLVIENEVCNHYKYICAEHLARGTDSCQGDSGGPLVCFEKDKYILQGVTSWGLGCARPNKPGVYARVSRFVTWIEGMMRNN

CCCCCCCCCCCCCCCC(=O)NCC(=O)NCC(=O)NCC(=O)N[C@@H](Cc1c[nH]cn1)C(=O)N[C@@H](C)C(=O)N[C@@H](C)C(=O)N[C@@H](CC(N)=O)C(=O)NCC(=O)N[C@@H](CCC(=O)O)C(=O)N[C@@H](CCC(=O)O)C(=O)N[C@@H](CS)C(=O)N[C@@H](CCC(=O)O)C(=O)O [SA‐E] (Palmitoyl-GGGHAANGEECE-OH)
fluorescence anisotropy of ICG in micelles [1]: 0.123 ± 0.006 | fluorescence in liver homogenates, SA‐E versus SA‐K (disassembly) [2]: almost identical fluorescence intensity | CD45 and mCherry negative cells (tumor stroma) containing Cy5 (RG2 xenografts; 2 days): 35%–40 | CD45 positive only (white blood cells) containing Cy5 (RG2 xenografts; 2 days): 35%–40 | enrichment in cancer cells compared to other cells in the tumor (RG2 xenografts; 2 days): approximately two‐fold | mCherry expressing cancer cells containing Cy5 (RG2 xenografts; tumors harvested 2 days later, three mice): ≈ 70% | Percentage, Apolipoprotein(a) (human plasma proteins; replicate 1): 0.1% | Total Counts, Apolipoprotein(a) (human plasma proteins; replicate 1): 4 | Percentage, Apolipoprotein(a) (human plasma proteins; replicate 2): 0.1% | Total Counts, Apolipoprotein(a) (human plasma proteins; replicate 2): 3

From article PMC12801355, “Peptide Amphiphiles Hitchhike on Endogenous Biomolecules for Enhanced Cancer Imaging and Therapy” (Advanced Materials (Deerfield Beach, Fla.), 2025)
